This passage reports EC50 results from US12404289B2 (Gilead Sciences, Inc., priority 2020, dated 2025).

The term EC50 denotes the concentration that produces a half-maximal response.

The first assay relates to SARS-CoV-2. Description: SARS-CoV-2 antiviral assay (A549-hACE2, Nano luciferase). The format is cell-based. Particulars: A549-hACE2 cells, SARS-CoV2-Nano, MOI 0.025, 48 h; Table 4; read-out: EC50 SARS CoV2.
In the case of `CCC(CC)COC(=O)[C@H](C)NP(=O)(OC[C@H]1O[C@@](C#N)(c2ccc3c(N)ncnn23)[C@H](O)[C@@H]1O)Oc1ccccn1` (single isomer, unassigned) [Example 175a], the EC50 came out at 3360 nM.

The subject of a further assay is Respiratory syncytial virus (RSV) strain A2. Description: Hep-2 RSV2 384-well assay (EC50-HEP2-384). Format: cell-based. Particulars: human respiratory syncytial virus, HEp-2, 96 h, HEp-2 cells, RSV A2, MOI=4, 4 days, Table 3.
The compound `CCC(CC)COC(=O)[C@H](C)NP(=O)(OC[C@H]1O[C@@](C#N)(c2ccc3c(N)ncnn23)[C@H](O)[C@@H]1O)Oc1ccccn1` (single isomer, unassigned) [Example 175a] showed an EC50 of 5000 nM. Regarding `COCCOC(=O)[C@H](C)NP(=O)(OC[C@H]1O[C@@](C#N)(c2ccc3c(N)ncnn23)[C@H](OC(C)=O)[C@@H]1OC(C)=O)Oc1ccc(C(C)(C)C)cc1` (stereo partly drawn) [Example 150, (2R,3R,4R,5R)-2-(4-aminopyrrolo[2,1-f][1,2,4]triazin-7-yl)-5-((((4-(tert-butyl)phenoxy)(((S)-1-(2-methoxyethoxy)-1-oxopropan-2-yl)amino)phosphoryl)oxy)methyl)-2-cyanotetrahydrofuran-3,4-diyl Diacetate], the response was half-maximal at 78.2 nM (EC50).

In the case of `COCCOC(=O)[C@H](C)NP(=O)(OC[C@H]1O[C@@](C#N)(c2ccc3c(N)ncnn23)[C@H](OC(=O)C(C)C)[C@@H]1OC(=O)C(C)C)Oc1ccc(C(C)(C)C)cc1` (stereo partly drawn) [Example 151, (2R,3R,4R,5R)-2-(4-aminopyrrolo[2,1-f][1,2,4]triazin-7-yl)-5-((((4-(tert-butyl)phenoxy)(((S)-1-(2-methoxyethoxy)-1-oxopropan-2-yl)amino)phosphoryl)oxy)methyl)-2-cyanotetrahydrofuran-3,4-diyl bis(2-methylpropanoate)], the EC50 worked out at 55.6 nM.

`CCC(CC)COC(=O)[C@H](C)NP(=O)(OC[C@H]1O[C@@](C#N)(c2ccc3c(N)ncnn23)[C@H](OC(C)=O)[C@@H]1OC(C)=O)Oc1ccc(OC2CCCCC2)cc1` (stereo partly drawn) [Example 152, (2R,3R,4R,5R)-2-(4-aminopyrrolo[2,1-f][1,2,4]triazin-7-yl)-2-cyano-5-((((4-(cyclohexyloxy)phenoxy)(((S)-1-(2-ethylbutoxy)-1-oxopropan-2-yl)amino)phosphoryl)oxy)methyl)tetrahydrofuran-3,4-diyl Diacetate] gave an EC50 of 211 nM. Compound `CCC(CC)COC(=O)[C@H](C)NP(=O)(OC[C@H]1O[C@@](C#N)(c2ccc3c(N)ncnn23)[C@H](OC(=O)C(C)C)[C@@H]1OC(=O)C(C)C)Oc1ccc(OC2CCCCC2)cc1` (stereo partly drawn) [Example 153, (2R,3R,4R,5R)-2-(4-aminopyrrolo[2,1-f][1,2,4]triazin-7-yl)-2-cyano-5-((((4-(cyclohexyloxy)phenoxy)(((S)-1-(2-ethylbutoxy)-1-oxopropan-2-yl)amino)phosphoryl)oxy)methyl)tetrahydrofuran-3,4-diyl bis(2-methylpropanoate)] had an EC50 of 270 nM. `COC(C)COC(=O)[C@H](C)NP(=O)(OC[C@H]1O[C@@](C#N)(c2ccc3c(N)ncnn23)[C@H](O)[C@@H]1O)Oc1ccc(C(C)(C)C)cc1` (stereo partly drawn) [Example 155, 2-methoxypropyl ((((2R,3S,4R,5R)-5-(4-aminopyrrolo[2,1-f][1,2,4]triazin-7-yl)-5-cyano-3,4-dihydroxytetrahydrofuran-2-yl)methoxy)(4-(tert-butyl)phenoxy)phosphoryl)-L-alaninate]: the EC50 is 683 nM. Regarding `CCOC(=O)[C@H](C)NP(=O)(OC[C@H]1O[C@@](C#N)(c2ccc3c(N)ncnn23)[C@H](OC(C)=O)[C@@H]1OC(C)=O)Oc1ccc(C(C)(C)C)cc1` (stereo partly drawn) [Example 157, (2R,3R,4R,5R)-2-(4-aminopyrrolo[2,1-f][1,2,4]triazin-7-yl)-5-((((4-(tert-butyl)phenoxy)(((S)-1-ethoxy-1-oxopropan-2-yl)amino)phosphoryl)oxy)methyl)-2-cyanotetrahydrofuran-3,4-diyl Diacetate], the EC50 came out at 79.5 nM.

On to `CCOC(=O)[C@H](C)NP(=O)(OC[C@H]1O[C@@](C#N)(c2ccc3c(N)ncnn23)[C@H](OC(=O)CC(C)C)[C@@H]1OC(=O)CC(C)C)Oc1ccc(C(C)(C)C)cc1` (stereo partly drawn) [Example 158, (2R,3R,4R,5R)-2-(4-aminopyrrolo[2,1-f][1,2,4]triazin-7-yl)-5-((((4-(tert-butyl)phenoxy)(((S)-1-ethoxy-1-oxopropan-2-yl)amino)phosphoryl)oxy)methyl)-2-cyanotetrahydrofuran-3,4-diyl bis(3-methylbutanoate)], for which it took 272 nM to reach a half-maximal effect (EC50). The compound `CCC(C)(C)CCOC(=O)[C@H](C)NP(=O)(OC[C@H]1O[C@@](C#N)(c2ccc3c(N)ncnn23)[C@H](OC(=O)C(C)C)[C@@H]1OC(=O)C(C)C)Oc1ccc(C(C)(C)C)cc1` (stereo partly drawn) [Example 160, (2R,3R,4R,5R)-2-(4-aminopyrrolo[2,1-f][1,2,4]triazin-7-yl)-5-((((4-(tert-butyl)phenoxy)(((S)-1-((3,3-dimethylpentyl)oxy)-1-oxopropan-2-yl)amino)phosphoryl)oxy)methyl)-2-cyanotetrahydrofuran-3,4-diyl bis(2-methylpropanoate)] returned an EC50 of 219 nM. `COC(C)COC(=O)[C@H](C)NP(=O)(OC[C@H]1O[C@@](C#N)(c2ccc3c(N)ncnn23)[C@H](OC(C)=O)[C@@H]1OC(C)=O)Oc1ccc(C(C)(C)C)cc1` (stereo partly drawn) [Example 161, (2R,3R,4R,5R)-2-(4-aminopyrrolo[2,1-f][1,2,4]triazin-7-yl)-5-((((4-(tert-butyl)phenoxy)(((2S)-1-(2-methoxypropoxy)-1-oxopropan-2-yl)amino)phosphoryl)oxy)methyl)-2-cyanotetrahydrofuran-3,4-diyl Diacetate]: the EC50 was found to be 113 nM.

Compound `COC(C)COC(=O)[C@H](C)NP(=O)(OC[C@H]1O[C@@](C#N)(c2ccc3c(N)ncnn23)[C@H](OC(=O)C(C)C)[C@@H]1OC(=O)C(C)C)Oc1ccc(C(C)(C)C)cc1` (stereo partly drawn) [Example 162, (2R,3R,4R,5R)-2-(4-aminopyrrolo[2,1-f][1,2,4]triazin-7-yl)-5-((((4-(tert-butyl)phenoxy)(((2S)-1-(2-methoxypropoxy)-1-oxopropan-2-yl)amino)phosphoryl)oxy)methyl)-2-cyanotetrahydrofuran-3,4-diyl bis(2-methylpropanoate)] gave an EC50 of 72.5 nM. Compound `CC(C)C(=O)O[C@H]1[C@@H](OC(=O)C(C)C)[C@](C#N)(c2ccc3c(N)ncnn23)O[C@@H]1COP(=O)(N[C@@H](C)C(=O)OCC1CCCCC1)Oc1ccc(C(C)(C)C)cc1` (stereo partly drawn) [Example 164, (2R,3R,4R,5R)-2-(4-aminopyrrolo[2,1-f][1,2,4]triazin-7-yl)-5-((((4-(tert-butyl)phenoxy)(((S)-1-(cyclohexylmethoxy)-1-oxopropan-2-yl)amino)phosphoryl)oxy)methyl)-2-cyanotetrahydrofuran-3,4-diyl bis(2-methylpropanoate)] had an EC50 of 107 nM. For `CC(C)C(=O)O[C@H]1[C@@H](OC(=O)C(C)C)[C@](C#N)(c2ccc3c(N)ncnn23)O[C@@H]1COP(=O)(N[C@@H](C)CC(=O)OC1CCC1)Oc1ccc(C(C)(C)C)cc1` (stereo partly drawn) [Example 167, (2R,3R,4R,5R)-2-(4-aminopyrrolo[2,1-f][1,2,4]triazin-7-yl)-5-((((4-(tert-butyl)phenoxy)(((S)-4-cyclobutoxy-4-oxobutan-2-yl)amino)phosphoryl)oxy)methyl)-2-cyanotetrahydrofuran-3,4-diyl bis(2-methylpropanoate)], the EC50 stood at 5000 nM.
